According to PubChem BioAssay (NCI):
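Exposure lasted 48 hours, with cells grown in 96-well plates and compounds tested at five concentrations. At the GI50, growth is halved. The concentration for full growth arrest is given as TGI.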

Assays:
Test in all cases: inhibition of tumour cell growth, NCI panel, 48 h
[1] = test system: HCT-15 colon
[2] = test system: MDA-MB-231 breast
[3] = test system: U251 CNS
[4] = test system: SK-MEL-28 melanoma
[5] = test system: CAKI-1 renal
[6] = test system: MCF7 breast
[7] = test system: OVCAR-4 ovarian
[8] = test system: MDA-N
[9] = test system: SW-620 colon
[10] = test system: SF-539 CNS
[11] = test system: SR leukemia

SMILES	TGI [1] [µM]	TGI [2] [µM]	TGI [3] [µM]	TGI [4] [µM]	TGI [5] [µM]	TGI [6] [µM]	TGI [7] [µM]	TGI [8] [µM]	TGI [9] [µM]	TGI [10] [µM]	TGI [11] [µM]	GI50 [1] [µM]	GI50 [4] [nM]	GI50 [5] [nM]	GI50 [9] [nM]	GI50 [10] [nM]	GI50 [2] [µM]	GI50 [3] [nM]	GI50 [7] [µM]	GI50 [6] [pM]
S=C(S)NCNC(=S)S.[Zn+2]	> 100	> 100	> 100	> 100	> 100	> 100	> 100	> 100	> 100	> 100	–	–	–	–	–	–	–	–	–	–
Cn1c(=O)n(C2(C)C[Se]C2)c2ccccc21	> 100	–	> 100	> 100	> 100	–	> 100	–	> 100	> 100	> 100	–	–	–	–	–	–	–	–	–
O=c1c(/C=C/c2c(O)ccc3ccccc23)nnc2sc(-c3cccc(Br)c3)nn12	64.7	–	> 100	> 100	56.8	84.4	31.9	> 100	> 100	> 100	41.1	–	–	–	–	–	–	–	–	–
O=C(Cn1c[n+](CC(=O)c2ccc(-c3ccccc3)cc2)c2ccccc21)Nc1cccc2cccnc12	30.9	–	–	2.83	6.16	–	–	–	3.05	3.06	–	9.63	1510	2180	1620	1620	–	–	–	–
N#Cc1c2ccccc2cn1-c1ccc(F)cc1	–	–	> 100	> 100	> 100	–	> 100	–	> 100	> 100	–	–	–	–	–	–	–	–	–	–
COC(=O)c1ccccc1/C=C1\Cc2ccc(C)c(C)c2C1=O	> 100	–	> 100	> 100	> 100	> 100	> 100	> 100	> 100	> 100	> 100	–	–	–	–	–	–	–	–	–
NNC(=O)c1n[nH]nc1C(=O)NN	> 100	> 100	> 100	–	32.6	> 100	–	> 100	–	–	> 100	–	–	–	–	–	–	–	–	–
CC(C)C(=O)OCC1OC(n2c(Br)nc3c(=O)[nH]c(N)nc32)C(OC(=O)C(C)C)C1OC(=O)C(C)C (stereo unspecified)	> 100	> 100	–	–	–	> 100	–	> 100	> 100	–	> 100	–	–	–	–	–	–	–	–	–
COc1ccc(S(=O)(=O)c2nnc(S(=O)(=O)Cc3ccccc3)s2)cc1	50.5	62.3	52.3	40.3	39.3	60.6	> 100	–	44	50.1	–	–	–	–	–	–	–	–	–	–
C[C@H](CCC(=O)O)[C@H]1CC[C@H]2[C@@H]3CC[C@@H]4C[C@H](O)CC[C@]4(C)[C@H]3C[C@H](O)[C@]12C	> 100	> 100	> 100	> 100	> 100	> 100	> 100	> 100	> 100	99	–	–	–	–	–	–	–	–	–	–
Cc1nc2c(nc1C)-c1[nH]c3c(c1C(=O)C2=O)CCCC3=O	8.08	3.4	2.92	3.16	–	2.98	3.04	1.9	5.17	3.12	6.4	–	–	–	–	–	–	–	–	–
Cc1ccc(-n2c(N)c(C#N)c3[nH]nc(N)c3c2=O)cc1	> 100	> 100	> 100	> 100	> 100	> 100	> 100	–	> 100	> 100	–	–	–	–	–	–	–	–	–	–
CC(=O)Oc1ccc2c(C)cc(=O)oc2c1OC(C)=O	81.6	> 100	> 100	> 100	–	> 100	> 100	> 100	> 100	> 100	> 100	–	–	–	–	–	–	–	–	–
CC1CCC(=O)C(C(=O)CC2CC(=O)N(C)C(=O)C2)C1 (stereo unspecified)	> 100	> 100	> 100	> 100	> 100	> 100	> 100	–	> 100	> 100	–	–	–	–	–	–	–	–	–	–
O=C(Nc1nc(C23CC4CC(CC(C4)C2)C3)cs1)c1cc2ccc(O)cc2oc1=O	47.6	48.7	28.7	47	> 100	61.3	44	41.3	22	86.6	–	–	–	–	–	–	–	–	–	–
COc1ccc(-[n+]2nc(S(=O)(=O)O)c(/C=C/c3ccc(N(C)C)cc3)cc2C#N)cc1	> 100	> 100	> 100	> 100	> 100	> 100	> 100	–	> 100	> 100	–	–	–	–	–	–	–	–	–	–
CCC(C)OC(=O)/C(Br)=C1/OC(=O)c2ccccc2-c2ccccc21 (stereo unspecified)	38.5	–	–	86.7	> 100	> 100	> 100	> 100	> 100	52.2	–	–	–	–	–	–	–	–	–	–
CCCCCCOC(=O)/C=C/[C@]1(CO)C/C(=C/CC(C(C)C)C(C)C)C(=O)O1	28.6	–	–	23.2	23.7	30.4	36	5.35	27.7	–	–	–	–	–	–	–	–	–	–	–
C=C(C)[C@@H]1CC[C@]2(C(=O)NC3CCCCC3)CC[C@]3(C)[C@H](CC[C@@H]4[C@@]5(C)CCCNC(C)(C)[C@@H]5CC[C@]43C)[C@@H]12	–	–	–	–	2.93	–	–	–	3.15	3.11	–	–	–	1560	1670	1690	–	–	–	–
O=c1cc(-c2cccc3ccccc23)[nH]c2ncccc12	10.3	> 100	> 100	> 100	> 100	4.25	> 100	–	> 100	–	> 100	–	15.8	–	–	15.9	0.0479	10.3	77.6	–
Nc1ncnc2c1ncn2[C@@H]1C[C@@H]1CO	> 100	> 100	> 100	–	–	> 100	–	> 100	> 100	> 100	> 100	–	–	–	–	–	–	–	–	–
CN=C(N=Nc1c(O)[nH]c2ccccc12)SCC(=O)c1ccc(Br)cc1	> 89.3	19.8	16.6	> 78.1	> 65.5	20.4	> 100	> 100	> 34.1	23.8	–	–	–	–	–	–	–	–	–	–
O=C(O)CCC(NC(=O)c1ccc(Nc2nc3cc(C(F)(F)F)ccc3nc2-c2ccccc2)cc1)C(=O)O (stereo unspecified)	> 100	–	> 100	> 100	–	> 100	> 100	–	> 100	> 100	–	–	–	–	–	–	–	–	–	–

SMILES	TGI [1] [µM]	TGI [2] [µM]	TGI [3] [µM]	TGI [4] [µM]	TGI [5] [µM]	TGI [6] [µM]	TGI [7] [µM]	TGI [8] [µM]	TGI [9] [µM]	TGI [10] [µM]	TGI [11] [µM]	GI50 [1] [µM]	GI50 [4] [nM]	GI50 [5] [nM]	GI50 [9] [nM]	GI50 [10] [nM]	GI50 [2] [µM]	GI50 [3] [nM]	GI50 [7] [µM]	GI50 [6] [pM]
CC1(C)N=C(N)N=C(N)N1c1ccc(CCc2ccccc2)cc1	> 100	–	> 100	> 86.7	> 100	> 76.7	> 100	–	> 100	82.8	–	–	–	–	–	–	–	–	–	–
COc1ccc2cc(/C=N/NC(=O)Nc3ccccc3)ccc2c1	> 100	> 100	> 100	–	> 100	> 100	> 100	> 100	> 100	–	> 100	–	–	–	–	–	–	–	–	–
N#Cc1c(-c2ccc(Cl)cc2Cl)nc2[nH][nH]c(=S)n2c1=O	> 100	> 100	> 100	> 100	> 100	> 100	> 100	> 100	> 100	–	> 100	–	–	–	–	–	–	–	–	–
Cc1cc2oc(=N)c(C#N)c(C)c2cc1C	> 100	> 100	> 100	> 100	> 100	> 100	> 100	> 100	> 100	> 100	–	–	–	–	–	–	–	–	–	–
NCc1ccccc1-c1c2nc(c(-c3ccccc3CN)c3ccc([nH]3)c(-c3ccccc3CN)c3nc(c(-c4ccccc4CN)c4ccc1[nH]4)C=C3)C=C2	49.4	–	51.6	43.4	–	–	51.2	–	> 100	–	–	–	–	–	–	–	–	–	–	–
CC1CCC(C(C)C)C(OC(=O)NCn2cc(-c3ccccc3)nn2)C1 (stereo unspecified)	> 100	> 100	> 100	> 100	> 100	> 100	> 100	–	> 100	> 100	> 100	–	–	–	–	–	–	–	–	–
CC1(CCOCc2ccccc2)NC(=O)NC1=O (stereo unspecified)	> 100	> 100	> 100	> 100	> 100	–	> 100	> 100	> 100	–	> 100	–	–	–	–	–	–	–	–	–
CN(C)C1(N(C)C)Oc2c(c(=O)n(C)c(=O)n2C)C(c2ccccc2)C1(F)F (stereo unspecified)	> 100	> 100	> 100	> 100	> 100	> 100	> 100	–	> 100	–	–	–	–	–	–	–	–	–	–	–
Cn1c(=O)c2c(nc(Cc3ccccc3)n2CC(=O)O)n(C)c1=O	> 100	> 100	> 100	> 100	> 100	–	> 100	> 100	> 100	–	–	–	–	–	–	–	–	–	–	–
CCC(/C=C/C1OC(=O)C=CC1C)=C\C(C)C/C=C/C(C)=C/C(C)C(=O)C(C)C(O)C(C)C/C(C)=C/C(=O)O (stereo unspecified)	–	–	5.89	–	–	–	–	0.000118	6.29	–	2.28e-05	1.72e-06	0.00451	< 0.001	0.00244	0.00202	–	< 0.001	< 1e-06	< 1
CCOC(=O)CN1C(=O)c2ccc(NC(=O)C(=O)O)cc2S1(=O)=O	> 100	> 100	> 100	> 100	> 100	> 100	> 100	> 100	> 100	–	> 100	–	–	–	–	–	–	–	–	–
COC(=O)c1cc2ccc(N)nc2[nH]c1=O	> 100	> 100	> 100	> 100	> 100	> 100	> 100	> 100	> 100	> 100	–	–	–	–	–	–	–	–	–	–
CC(OC(C)(C)C)[C@H](NC(=O)OCC(Cl)(Cl)Cl)C(=O)O (stereo partly specified)	> 100	–	> 100	> 100	> 100	–	> 100	–	> 100	> 100	> 100	–	–	–	–	–	–	–	–	–
COC(CNC(=O)C(C)NC(=O)/C=C/c1ccccc1)OC (stereo unspecified)	> 100	> 100	> 100	–	> 100	> 100	–	> 100	> 100	> 100	> 100	–	–	–	–	–	–	–	–	–
O=c1cnn(C/C=C/CO)c(=O)[nH]1	> 100	> 100	> 100	> 100	> 100	> 100	–	> 100	> 100	–	> 100	–	–	–	–	–	–	–	–	–
Cc1cc(S(=O)(=O)Nc2n[nH]c(N)n2)c(SCC(=O)O)cc1Cl	> 10	–	> 10	> 10	> 10	> 10	> 10	> 10	> 10	> 10	> 10	–	–	–	–	–	–	–	–	–
CSc1nc(Nc2cccc(C(F)(F)F)c2)c2c(N)nn(C)c2n1	> 100	> 100	> 100	> 100	> 100	–	> 100	> 100	> 100	–	–	–	–	–	–	–	–	–	–	–
CCCCNC(=S)Nc1nc(C(=O)NNC(=S)Nc2ccccc2)cs1	> 100	87.2	48.3	–	> 100	> 100	> 100	> 100	> 100	> 100	–	–	–	–	–	–	–	–	–	–
N#Cc1c(N)n(-c2cccc(C(=O)O)c2)c(=O)c2cc([N+](=O)[O-])ccc12	> 100	> 100	> 100	> 100	> 100	–	> 100	> 100	> 100	–	–	–	–	–	–	–	–	–	–	–
CC12CC(c3ccccc3O1)C(C(=O)Nc1ccc(Cl)cc1Cl)C(=O)N2 (stereo unspecified)	> 100	–	48.2	> 100	> 100	> 100	39.6	> 100	> 100	> 100	–	–	–	–	–	–	–	–	–	–
Cn1ccc(C(=O)NCCN(CCNC(=O)c2ccn(C)c(=O)c2O)CCNC(=O)c2cccc(=O)n2O)c(O)c1=O	> 100	> 100	> 100	> 100	> 100	> 100	> 100	–	> 100	> 100	> 100	–	–	–	–	–	–	–	–	–
O=[N+]([O-])c1ccc2c(c1)C1=C(CO2)Cc2ccccc2O1	31.2	51.4	36.2	–	31.4	–	> 100	33.1	53.5	52.2	> 100	–	–	–	–	–	–	–	–	–
